Assay results: patent publication US11339193B2, “CDP protein secretion inhibitors” (KEZAR LIFE SCIENCES, priority 2018, dated 2022)
Where two headings read alike, the source gives them in different places. Numbered stars: 1 amine (or outer) side, 2 acyl side, 3 side chain; on linkers, the order of the positions; unused ones are H or OH. Square brackets hold non-standard residues; d marks the D form. Peptide text beside a SMILES is read from it. NMeAla(5-Cl-benzothien-3-yl) = CN[C@@H](Cc1csc2ccc(Cl)cc12)C(=O)O; X16 = CN([C@@H](Cc1csc2c(Cl)cccc12)C(=O)[*:2])[*:1]; Ala(1-cyclohexenyl) = N[C@@H](CC1=CCCCC1)C(=O)O; Butanoyl(2R-oxy,4-CN) = N#CCC[C@@H](O)C(=O)O; X23 = CN([C@@H](CC1=CCCCC1)C(=O)[*:2])[*:1]; Abu(4,4,4-F3) = N[C@@H](CC(F)(F)F)C(=O)O; X12 = O=C([C@H](CC1=CCCC1)N[*:1])[*:2]; NMeL = CN[C@@H](CC(C)C)C(=O)O; NMeA = CN[C@@H](C)C(=O)O

Legend:
Type in all cases: cell-based
[1] = system: U266B1 multiple myeloma cell line; assay: U266 assay (cell viability, Celltiter-Glo); conditions: Homo sapiens, U-266
Experimental: Cells were plated in 384-well tissue culture plates and treated with compound dilutions in DMSO/media. Plates were incubated at 37° C., 5% CO2 for 48 hours. After 48 hours, Celltiter-Glo@ (Promega) was added to each well and luciferase signal was quantified using Tecan Infinite M1000 Pro for cell viability determination.

HER3ss-Gluc = assay: HER3ss assay; conditions: read-out: HER3 ss IC50
Experimental: The mature domain of secreted luciferase from Gaussia princeps (GLuc) was cloned into pcDNA5/FRT/TO. The signal sequence plus four amino acids of the mature domain from HER3 ([…]) (SEQ ID NO:8) were cloned upstream of GLuc mature domain and used in transient transfection experiment. HEK-293T T-rex cells were cultured in Dulbecco's modified Eagle's medium with 10% FBS at 5% CO2. Cells were plated 1×10e6 cells per well in a 6-well plate and incubated for 6 h. Cells were transiently transfected with HER3ss-Gluc using Lipofectamine 2000 (Invitrogen). After overnight incubation, transfected cells were replated in a clear-bottomed, black 96-well plate at a density of 20,000 cells per well. Six hours after plating, the cells were treated with doxycycline (1 μg/ml) and increasing concentrations of the indicated compounds for 24 h. Secreted luciferase in the conditioned media was quantified by luminescence using the BioLux Gaussia Luciferase Assay Kit (New England Biolabs, Ipswich, Mass., USA) and a SpectraMax M5 plate reader (Molecular Devices).

[2] = system: NCI-H929 multiple myeloma cell line; assay: H929 assay (cell viability, Celltiter-Glo); conditions: Homo sapiens, NCI-H929, read-out: H929 EC50
Method in brief: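 Cells plated in RPMI 1640 with 10% FBS and 2 mM glutamine, treated with compound dilutions in DMSO/media. Incubation 48 h at 37° C, 5% CO2. Viability from luciferase luminescence signal.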

[3] = system: PD1-ss+10aa/Gaussia Luciferase; assay: Dox induced PD1-ss-Gluc assay; conditions: read-out: PD1ss Gluc IC50
Method in brief: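 Stable Flp-In 293 T-REx line expressing doxycycline-inducible Gaussia luciferase fused to the PD1 signal sequence plus 10 amino acids. Cells plated the day before, then exposed to compound dilutions in DMSO/media containing doxycycline at 37 °C, 5% CO2.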

[4] = system: TNFα-FL/Gaussia Luciferase; assay: Dox induced TNFα-FL-Gluc assay; conditions: read-out: TNFa FL Gluc IC50
Method in brief: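 Stable Flp-In 293 T-REx line expressing full-length TNFα (aa 1-233) fused at its C-terminus to Gaussia luciferase under doxycycline-inducible control. Cells plated the day before, then given compound dilutions in DMSO/media containing doxycycline and incubated at 37 °C, 5% CO2.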

[5] = system: Prl-ss+10aa/Gaussia Luciferase; assay: Prl-ss-Gluc assay (constitutively active or 24 hr Dox inducible); conditions: read-out: Prl IC50
From the text: Constitutively Active Prl-ss-Gluc Assay
Flp-In 293 T-REx™ cells were transfected with pcDNA™5/FRT plasmid inserted with cDNA encoding Gaussia Luciferase fused to the 3′ end of cDNA encoding Prl signal sequence plus 10 amino acids (N-[…]-C) (SEQ ID NO:4). Transfected cells were selected for resistance to the selectable markers Hygromycin and Blasticidin to create a stable cell line that constitutively expressed the Prlss+10aa/Gaussia Luciferase fusion protein. The day before assay, cells were trypsinized and plated in 384-well tissue culture plates. The next day, culture media was removed from the wells and replaced with fresh media. Compound dilutions in DMSO/media were added to the wells and incubated at 37° C., 5% CO2.
24 hr Dox Inducible Prl-ss-Gluc Assay
Flp-In 293 T-REx™ cells were transfected with pcDNA™5/FRT/TO plasmid inserted with cDNA encoding Gaussia Luciferase fused to the 3′ end of cDNA encoding Prl signal sequence plus 10 amino acids (N-[…]-C) (SEQ ID NO:5). Transfected cells were selected for resistance to the selectable markers Hygromycin and Blasticidin to create a stable cell line that contained the Prl-ss+10aa/Gaussia Luciferase cDNA insert whose expression was regulated under the T-REx™ system. The day before assay, cells were trypsinized and plated in 384-well tissue culture plates. The next day, compound dilutions in DMSO/media containing doxycycline were added to the wells and incubated at 37° C., 5% CO2.

[6] = HEK-293T T-rex cells, transient transfection, doxycycline, 24 h
[7] = Flp-In 293 T-REx cells, doxycycline, 24 hours
[8] = Flp-In 293 T-REx cells, 24 hours

| EC50 ([1]; I.A.) [µM] | IC50 (HER3ss-Gluc; [6]) [nM] | EC50 ([2]; 48 hours, cell viability) [µM] | IC50 [3, 7] [nM] | IC50 [4, 7] [µM] | IC50 ([5]; I.A.) [µM] | IC50 [5, 8] [µM] | EC50 ([2]; I.A.) [µM] | IC50 ([4]; I.A.) [µM] | SMILES | EC50 ([1]; 48 hours, cell viability) [µM] | IC50 (HER3ss-Gluc; I.A.) [nM] | IC50 ([3]; I.A.) [nM] |
| --- | --- | --- | --- | --- | --- | --- | --- | --- | --- | --- | --- | --- |
| > 25 | 6 | 8.4 | 472 | 3.84 | > 25 |  |  |  | CC(C)C[C@@H]1NC(=O)[C@H](Cc2csc3ccc(Cl)cc23)N(C)C(=O)[C@H](CC2=CCCC2)NC(=O)[C@H](CC(C)C)N(C)C(=O)[C@H](CC(F)(F)F)NC(=O)[C@@H](CCC#N)OC(=O)[C@H](C)N(C)C1=O [C-96] (cyclo(L[NMeA][Butanoyl(2R-oxy,4-CN)][Abu(4,4,4-F3)][NMeL][X12][NMeAla(5-Cl-benzothien-3-yl)])) |  |  |  |
| > 25 | 74 | 6.05 | 425 | 1.24 |  | 19.3 |  |  | CC(C)C[C@@H]1NC(=O)[C@H](Cc2csc3c(Cl)cccc23)N(C)C(=O)[C@H](CC(C)C)NC(=O)[C@H](CC(C)C)N(C)C(=O)[C@H](CC(F)(F)F)NC(=O)[C@@H](CCC#N)OC(=O)[C@H](C)N(C)C1=O [C-94] (cyclo(L[NMeA][Butanoyl(2R-oxy,4-CN)][Abu(4,4,4-F3)][NMeL]L[X16])) |  |  |  |
| > 25 | 10 |  | 567 |  | > 25 |  | > 25 | > 25 | CC(C)C[C@@H]1NC(=O)[C@H](Cc2csc3ccc(Cl)cc23)N(C)C(=O)[C@H](CC2=CCCC2)NC(=O)[C@H](CC(C)C)N(C)C(=O)[C@H](CC2=CCCCC2)NC(=O)[C@@H](CCC#N)OC(=O)[C@H](C)N(C)C1=O [C-86] (cyclo(L[NMeA][Butanoyl(2R-oxy,4-CN)][Ala(1-cyclohexenyl)][NMeL][X12][NMeAla(5-Cl-benzothien-3-yl)])) |  |  |  |
| > 25 | 30 | 5.26 | 149 | 0.605 |  | 19.8 |  |  | CC(C)C[C@@H]1NC(=O)[C@H](Cc2csc3ccc(Cl)cc23)N(C)C(=O)[C@H](CC(C)C)NC(=O)[C@H](CC(C)C)N(C)C(=O)[C@H](CC2=CCCCC2)NC(=O)[C@@H](CCC#N)OC(=O)[C@H](C)N(C)C1=O [C-99] (cyclo(L[NMeA][Butanoyl(2R-oxy,4-CN)][Ala(1-cyclohexenyl)][NMeL]L[NMeAla(5-Cl-benzothien-3-yl)])) |  |  |  |
| > 25 | 7 |  | 1140 |  | > 25 |  | > 25 | > 25 | CC(C)C[C@@H]1NC(=O)[C@H](Cc2csc3ccc(Cl)cc23)N(C)C(=O)[C@H](CC2=CCCCC2)NC(=O)[C@H](CC(C)C)N(C)C(=O)[C@H](CC2=CCCC2)NC(=O)[C@@H](CCC#N)OC(=O)[C@H](C)N(C)C1=O [C-85] (cyclo(L[NMeA][Butanoyl(2R-oxy,4-CN)][X12][NMeL][Ala(1-cyclohexenyl)][NMeAla(5-Cl-benzothien-3-yl)])) |  |  |  |

| SMILES | EC50 ([1]; I.A.) [µM] | IC50 (HER3ss-Gluc; [6]) [nM] | EC50 ([2]; 48 hours, cell viability) [µM] | IC50 [3, 7] [nM] | IC50 [4, 7] [µM] | IC50 ([5]; I.A.) [µM] | IC50 [5, 8] [µM] | EC50 ([2]; I.A.) [µM] | IC50 ([4]; I.A.) [µM] | EC50 ([1]; 48 hours, cell viability) [µM] | IC50 (HER3ss-Gluc; I.A.) [nM] | IC50 ([3]; I.A.) [nM] |
| --- | --- | --- | --- | --- | --- | --- | --- | --- | --- | --- | --- | --- |
| CC(C)C[C@@H]1NC(=O)[C@H](Cc2csc3ccc(Cl)cc23)N(C)C(=O)[C@H](CC(C)C)NC(=O)[C@H](CC2=CCCCC2)N(C)C(=O)[C@H](CC(F)(F)F)NC(=O)[C@@H](CCC#N)OC(=O)[C@H](C)N(C)C1=O [C-80] (cyclo(L[NMeA][Butanoyl(2R-oxy,4-CN)][Abu(4,4,4-F3)][X23]L[NMeAla(5-Cl-benzothien-3-yl)])) |  |  | 3.44 |  |  |  | 23.7 |  | > 25 | 5.68 | > 25000 | > 25000 |
